# Where two headings read alike, the source gives them in different places.
# Assays:
# [1] = test system: total HDAC activity in cultured neonatal mouse ventricular cardiomyocytes; test: Fluor de Lys total HDAC activity assay in cultured ventricular cardiomyocytes; type: cell-based; conditions: NMVMs, 18–24 h treatment
# Method: Neonatal mice born from an inbred C57BL/6 mouse colony were anesthetized using isoflurane and the hearts were excised in accordance with procedures approved by the SUNY Upstate Medical University Institutional Animal Care and Use Committee (IACUC) # 263 on 15 March 2017. The excised hearts were separated into atria and ventricles and exposed to collagenase solution for digestion. The dissociated cells were pre-plated for 30 min to reduce fibroblast content by differential adhesion and the supernatant was collected, centrifuged and re-suspended in 1 mL/heart of M199/10% FBS culture media. The primary cells were plated into 96-well plates for HDAC activity assays, 35 mm culture dishes for patch clamp electrophysiology, or 60 mm culture dishes and homogenized after 3 days for Western blots.
# Aliquots of 2 × 10^5 ventricular myocytes per well (96-well plate) were grown in 200 μL of 200 μM bromodeoxyuridine (BrDU)/M199, exchanged daily. Cell densities were counted with a hemocytometer and seeded into the wells. Wells were incubated with 2000 pmoles of the acetylated Fluor-de-Lys® substrate for 8 h during HDAC inhibition. […]
# [2] = test system: ventricular gap junction conductance (gj), Cx43-mediated; test: Gap junction conductance (gj), dual whole cell patch clamp on NMVM cell pairs; type: cell-based, mouse; conditions: 10 or 25 nM ricolinostat, 18–24 h
# Method: Final DMSO levels were <0.005% (vol/vol).
# Gap junction currents (Ij) were recorded in the dual whole cell configuration according to previously published methods. Upon establishing a dual whole cell patch, Ij was recorded using a 30 s, 20 mV trans-junctional voltage protocol. All dual whole cell current recordings were low-pass filtered at 500 Hz and digitized at 2 KHz using pClamp 8.2 and graphical analysis performed using Origin 7.5 or 8.6 software as previously described.
# [3] = test system: cardiac sodium current (INa) in NMVMs, primarily NaV1.5; test: Cardiac sodium current (INa) density and Vm-dependent gNa activation/inactivation, whole cell patch clamp; type: cell-based, mouse
# From the text: Since both the activation and inactivation of INa are dependent on the membrane potential (Vm), we calculated the normalized Na^+ conductance (gNa) by dividing the average peak INa by the difference between Vm and the reversal potential (Erev) for INa, and then divided the gNa value for each Vm by the maximum gNa value for each experiment. The gNa–Vm curves were fit with a Boltzmann function gNa= gNamax+ (gNa− gNamax)/[1+exp((Vm− V1/2)/dVm)] using Origin 8.6. […] Final DMSO levels were <0.005% (vol/vol).
# late INa in NMVMs = test: Late INa, whole cell patch clamp; type: cell-based, mouse; conditions: 25 nM ricolinostat 18–24 h, Vm ramp
# From the text: Increases in late or persistent INa have been linked to cardiac arrhythmias and heart failure. […] . Subsequently, we modified a voltage clamp ramp protocol designed to generate late INa I–V relationships. […] .
# [4] = test system: Cx43 protein expression in NMVMs; test: Western blot of Cx43 protein level; type: cell-based, mouse; conditions: 25 nM ricolinostat, 24 h
# [5] = test system: NaV1.5 protein expression in NMVMs; test: Western blot of NaV1.5 protein level; type: cell-based, mouse; conditions: 25 nM ricolinostat, 24 h
# HDAC1 = test system: HDAC1; design: method as in PMID 22262760; conditions: cited from earlier work
# HDAC2 = test system: HDAC2; design: method as in PMID 22262760; conditions: cited from earlier work
# HDAC3 = test system: HDAC3; design: method as in PMID 22262760; conditions: cited from earlier work
# HDAC8 = test system: HDAC8; design: method as in PMID 22262760; conditions: cited from earlier work
# HDAC4 = test system: HDAC4; design: method as in PMID 22262760; conditions: cited from earlier work
# HDAC5 = test system: HDAC5; design: method as in PMID 22262760; conditions: cited from earlier work
# HDAC7 = test system: HDAC7; design: method as in PMID 22262760; conditions: cited from earlier work
# HDAC9 = test system: HDAC9; design: method as in PMID 22262760; conditions: cited from earlier work
# [6] = test system: acetyl-α-tubulin and acetyl-histone 3; test: Western blot of acetylation markers; conditions: 25 nM ACY-1215, 24 h
# IK,to and IK,ss in NMVMs = test: Transient and steady state outward K+ currents, whole cell patch clamp; conditions: 25 nM ACY-1215, 24 h
# [7] = 25 nM ricolinostat, listed as ricolinostat
smiles,measurement,setting,value
"O=C(CCCCCCNC(=O)c1cnc(N(c2ccccc2)c2ccccc2)nc1)NO [Ricolinostat, ricolinostat]","C1, decay constant of first exponential component of HDAC inhibition curve",[1]; double exponential fit,16.9 ± 15.1 nM
same,"C2, decay constant of second exponential component of HDAC inhibition curve",[1]; double exponential fit,204 ± 52 nM
same,IC50,"[1]; read-out: IC50(1), high affinity site, total HDAC activity, IC50 = 0.693·C1",12 nM
same,IC50,"[1]; read-out: IC50(1), high affinity site, total HDAC activity, IC50 = 0.693·C1, listed as ACY-1215",11.7 ± 10.5 nM
same,IC50,"[1]; read-out: IC50(2), low affinity site, total HDAC activity, IC50 = 0.693·C2",140 nM
same,IC50,"[1]; read-out: IC50(2), low affinity site, total HDAC activity, IC50 = 0.693·C2, listed as ACY-1215",141 ± 36 nM
same,effect on ventricular gj,[2],"modest but non-significant increases and decreases in gj, respectively"
same,increase in peak INa,"[3]; 25 nM ricolinostat, not statistically significant (p = 0.054, one-way ANOVA)",93%
same,effect on peak INa density,[3]; 10 and 25 nM ricolinostat,"concentration-dependent, but non-significant, increase"
same,effect on late INa current density,late INa in NMVMs,no increase in late INa
same,Cx43 protein level,[4],no significant changes
same,NaV1.5 protein level,[5],no significant changes
same,IC50,HDAC7,1400 nM
same,Ac-H3 and Ac-α-tubulin signals,[6],only increased the Ac-α-tubulin signal
same,transient outward and steady state K+ currents,"IK,to and IK,ss in NMVMs",no si gni ficant chang es

# Source: article PMC6121244, “Differences in Functional Expression of Connexin43 and NaV1.5 by Pan- and Class-Selective Histone Deacetylase Inhibition in Heart” (International Journal of Molecular Sciences, 2018)
